From patent publication US8163702B2, “Treatment of melanoma” (SciClone Pharmaceuticals, Inc., priority 2006, dated 2012)
Several values for one entry are separate records, joined by “and”; a condition that tells them apart may be missing. Equal entries are not always repeated.

Test system: murine B16 melanoma
Experiment: Antitumor effect in murine B16 melanoma model, tumor size and tumor weight (Example 2)
Type: in vivo, C57BL/6 mice
Details: for Tumor volumes / Tumor measurements L / Tumor measurements W: Day 12; for IR (tumor volume inhibition rate) / Tumor Volume (Mean ± SD) / Tumor volumes (cm^3) on Day 15 / Tumor measurements (cm) on Day 15, L / Tumor measurements (cm) on Day 15, W: Day 15; for IR (inhibition rate of tumor weight) / Tumor Weight (Mean ± SD) / Tumor weights (g) on Day 17: Day 17; for Tumor volumes (cm^3) on Day 15: Length × Width × Width/2; for Tumor volumes (cm^3) on Day 15 / Tumor measurements (cm) on Day 15, L / Tumor measurements (cm) on Day 15, W / Tumor weights (g) on Day 17: individual animals F1-F5, M1-M5
Protocol: As per aseptic tissue culture procedures, one vial of B16 melanoma cells (supplied by Cell Culture Center of CAMS) was thawed and centrifuged at 1000 rpm, 20-25° C. for 5 minutes. The cell pellets were suspended in 0.1-0.5 mL normal saline (NS) and subcutaneously injected into the right axilla of each mouse (approximately 1×10^6 cells/mouse). When the tumor diameter was 1 cm approximately (measured by vernier caliper), the animals were euthanized with CO2 asphyxiation and the tumor was excised. Tumor cells were suspended in normal saline as previously described and the cell adaptation cycle was repeated once.
On Day 0, 1×10^6 B16 cells in a volume of 0.1 mL normal saline were subcutaneously injected into the right axillary area of the mouse. The day of tumor inoculation was defined as Day 0.
Dosing was initiated on Day 1.
Observations were recorded daily for mortality and moribundity. […] The tumors were excised, separated, and weighed.
Tumor volume was calculated using the following formula: Tumor Volume=Length×Width×Width/2 Tumor volume inhibition rate (IR) was calculated according to the formula: IR(TV)=(TVvehicle−TVdrug treated)/TVvehicle×100% TV is the tumor volume on the day of measurement.
The antitumor effect of the test article was also evaluated by tumor weight. The tumor weight of each mouse was recorded after euthanasia, and the inhibition rate of tumor weight was calculated according to the formula: IR(TW)=(Tumor weightvehicle−Tumor weightdrug treated)/Tumor weightvehicle×100%

[1] = SCV-07 0.01 mg/kg (Group 3), 0.01 mg/kg, female animals
[2] = SCV-07 0.01 mg/kg (Group 3), 0.01 mg/kg, male animals
[3] = SCV-07 0.01 mg/kg (Group 3), 0.01 mg/kg
[4] = SCV-07 0.1 mg/kg (Group 4), 0.1 mg/kg, female animals
[5] = SCV-07 0.1 mg/kg (Group 4), 0.1 mg/kg, male animals
[6] = SCV-07 0.1 mg/kg (Group 4), 0.1 mg/kg
[7] = SCV-07 1.0 mg/kg (Group 5), 1 mg/kg, female animals
[8] = SCV-07 1.0 mg/kg (Group 5), 1 mg/kg, male animals
[9] = SCV-07 1.0 mg/kg (Group 5), 1 mg/kg
[10] = SCV-07 5.0 mg/kg (Group 6), 5 mg/kg, female animals
[11] = SCV-07 5.0 mg/kg (Group 6), 5 mg/kg, male animals
[12] = SCV-07 5.0 mg/kg (Group 6), 5 mg/kg

Compound: N[C@H](CCC(=O)N[C@@H](Cc1c[nH]c2ccccc12)C(=O)O)C(=O)O [SCV-07, γ-D-glutamyl-L-tryptophan]
- Tumor volumes (mouse M3, SCV-07 0.1 mg/kg sc): 0.67 cm^3
- Tumor measurements L (mouse M3, SCV-07 1.0 mg/kg sc): 0.7 cm
- Tumor measurements W (mouse M3, SCV-07 1.0 mg/kg sc): 0.7 cm
- Tumor volumes (mouse M3, SCV-07 1.0 mg/kg sc): 0.17 cm^3
- Tumor measurements L (mouse M3, SCV-07 5.0 mg/kg sc): 0.9 cm
- Tumor measurements W (mouse M3, SCV-07 5.0 mg/kg sc): 0.9 cm
- Tumor volumes (mouse M3, SCV-07 5.0 mg/kg sc): 0.36 cm^3
- Tumor measurements L (mouse M4, SCV-07 0.01 mg/kg sc): 1.0 cm
- Tumor measurements W (mouse M4, SCV-07 0.01 mg/kg sc): 1.0 cm
- Tumor volumes (mouse M4, SCV-07 0.01 mg/kg sc): 0.50 cm^3
- Tumor measurements L (mouse M4, SCV-07 0.1 mg/kg sc): 1.0 cm
- Tumor measurements W (mouse M4, SCV-07 0.1 mg/kg sc): 0.9 cm
- Tumor volumes (mouse M4, SCV-07 0.1 mg/kg sc): 0.41 cm^3
- Tumor measurements L (mouse M4, SCV-07 1.0 mg/kg sc): 1.0 cm
- Tumor measurements W (mouse M4, SCV-07 1.0 mg/kg sc): 0.7 cm
- Tumor volumes (mouse M4, SCV-07 1.0 mg/kg sc): 0.25 cm^3
- Tumor measurements L (mouse M4, SCV-07 5.0 mg/kg sc): 1.1 cm
- Tumor measurements W (mouse M4, SCV-07 5.0 mg/kg sc): 1.1 cm
- Tumor volumes (mouse M4, SCV-07 5.0 mg/kg sc): 0.67 cm^3
- Tumor measurements L (mouse M5, SCV-07 0.01 mg/kg sc): 1.1 cm
- Tumor measurements W (mouse M5, SCV-07 0.01 mg/kg sc): 1.0 cm
- Tumor volumes (mouse M5, SCV-07 0.01 mg/kg sc): 0.55 cm^3
- Tumor measurements L (mouse M5, SCV-07 0.1 mg/kg sc): 0.9 cm
- Tumor measurements W (mouse M5, SCV-07 0.1 mg/kg sc): 0.9 cm
- Tumor volumes (mouse M5, SCV-07 0.1 mg/kg sc): 0.36 cm^3
- Tumor measurements L (mouse M5, SCV-07 1.0 mg/kg sc): 0.8 cm
- Tumor measurements W (mouse M5, SCV-07 1.0 mg/kg sc): 0.7 cm
- Tumor volumes (mouse M5, SCV-07 1.0 mg/kg sc): 0.20 cm^3
- IR (tumor volume inhibition rate) (SCV-07 0.01 mg/kg/day sc): 15.3%
- Tumor Volume (Mean ± SD) (SCV-07 0.01 mg/kg/day sc): 1.642 ± 0.549 cm^3
- IR (tumor volume inhibition rate) (SCV-07 0.1 mg/kg/day sc): 7.9%
- Tumor Volume (Mean ± SD) (SCV-07 0.1 mg/kg/day sc): 1.786 ± 0.524 cm^3
- IR (tumor volume inhibition rate) (SCV-07 1.0 mg/kg/day sc): 16.5%
- Tumor Volume (Mean ± SD) (SCV-07 1.0 mg/kg/day sc): 1.617 ± 0.274 cm^3
- IR (tumor volume inhibition rate) (SCV-07 5.0 mg/kg/day sc): 30.2%
- Tumor Volume (Mean ± SD) (SCV-07 5.0 mg/kg/day sc): 1.353 ± 0.591 cm^3
- IR (inhibition rate of tumor weight) (SCV-07 0.01 mg/kg/day sc): 27.5%
- Tumor Weight (Mean ± SD) (SCV-07 0.01 mg/kg/day sc): 2.77 ± 0.88 g
- IR (inhibition rate of tumor weight) (SCV-07 0.1 mg/kg/day sc): 5.8%
- Tumor Weight (Mean ± SD) (SCV-07 0.1 mg/kg/day sc): 3.59 ± 0.62 g
- IR (inhibition rate of tumor weight) (SCV-07 1.0 mg/kg/day sc): 23.5%
- Tumor Weight (Mean ± SD) (SCV-07 1.0 mg/kg/day sc): 2.92 ± 0.55 g
- IR (inhibition rate of tumor weight) (SCV-07 5.0 mg/kg/day sc): 30.8%
- Tumor Weight (Mean ± SD) (SCV-07 5.0 mg/kg/day sc): 2.64 ± 1.14 g
- Tumor volumes (cm^3) on Day 15 [1]: 1.37 cm^3 and 1.69 cm^3 (3×) and 1.47 cm^3
- Tumor volumes (cm^3) on Day 15 [2]: 1.57 cm^3 and 1.69 cm^3 and 3.18 cm^3 and 1.47 cm^3 and 2.05 cm^3
- Tumor measurements (cm) on Day 15, L [3]: 1.5 cm and 1.8 cm (3×) and 1.4 cm (5×) and 1.3 cm
- Tumor measurements (cm) on Day 15, W [3]: 1.5 cm (3×) and 1.4 cm (4×) and 1.3 cm (2×) and 1.8 cm
- Tumor weights (g) on Day 17 [1]: 1.55 g and 2.04 g and 2.24 g and 3.71 g and 3.21 g
- Tumor weights (g) on Day 17 [2]: 2.77 g and 2.80 g and 4.57 g and 2.29 g and 2.50 g
- Tumor volumes (cm^3) on Day 15 [4]: 1.18 cm^3 (2×) and 1.69 cm^3 (2×) and 1.80 cm^3
- Tumor volumes (cm^3) on Day 15 [5]: 1.69 cm^3 (2×) and 1.77 cm^3 and 1.44 cm^3 and 2.05 cm^3
- Tumor measurements (cm) on Day 15, L [6]: 1.5 cm (6×) and 2.2 cm and 1.6 cm (2×) and 1.4 cm
- Tumor measurements (cm) on Day 15, W [6]: 1.4 cm (4×) and 1.7 cm and 1.6 cm and 1.5 cm (4×)
- Tumor weights (g) on Day 17 [4]: 2.46 g and 4.08 g and 4.03 g and 3.93 g and 3.52 g
- Tumor weights (g) on Day 17 [5]: 3.10 g and 3.73 g and 4.47 g and 2.86 g and 3.74 g
- Tumor volumes (cm^3) on Day 15 [7]: 1.10 cm^3 and 1.37 cm^3 and 1.80 cm^3 and 1.35 cm^3 and 1.57 cm^3
- Tumor volumes (cm^3) on Day 15 [8]: 1.47 cm^3 (2×) and 2.30 cm^3 and 1.10 cm^3
- Tumor measurements (cm) on Day 15, L [9]: 1.5 cm (3×) and 1.7 cm and 1.6 cm (2×) and 2 cm and 1.4 cm (2×) and 2.1 cm
- Tumor measurements (cm) on Day 15, W [9]: 1.5 cm (4×) and 1.3 cm (5×) and 1.6 cm
- Tumor weights (g) on Day 17 [7]: 2.69 g and 2.67 g and 4.06 g and 2.66 g and 3.25 g
- Tumor weights (g) on Day 17 [8]: 3.58 g and 2.89 g and 2.25 g and 2.55 g and 2.58 g
- Tumor volumes (cm^3) on Day 15 [10]: 1.91 cm^3 and 2.56 cm^3 and 1.69 cm^3 and 2.03 cm^3 and 1.57 cm^3
- Tumor volumes (cm^3) on Day 15 [11]: 1.37 cm^3 and 2.05 cm^3 (2×) and 2.03 cm^3 and 2.14 cm^3
- Tumor measurements (cm) on Day 15, L [12]: 1.6 cm (3×) and 1.5 cm (2×) and 1.8 cm and 1.3 cm (2×) and 1.4 cm
- Tumor measurements (cm) on Day 15, W [12]: 1.4 cm (4×) and 1.6 cm and 1.3 cm (3×) and 1.5 cm
- Tumor weights (g) on Day 17 [10]: 1.94 g and 3.15 g and 2.97 g and 2.80 g and 2.85 g
- Tumor weights (g) on Day 17 [11]: 4.30 g and 0.15 g and 2.45 g and 3.78 g and 2.02 g
- B16 melanoma tumor growth (SCV-07 0.01, 1.0 and 5.0 mg/kg/day sc for 14 days): significantly reduced
